B1: Acetylcholinesterase (Homo sapiens), P22303 (protein)
chain: MRPPQCLLHTPSLASPLLLLLLWLLGGGVGAEGREDAELLVTVRGGRLRGIRLKTPGGPVSAFLGIPFAEPPMGPRRFLPPEPKQPWSGVVDATTFQSVCYQYVDTLYPGFEGTEMWNPNRELSEDCLYLNVWTPYPRPTSPTPVLVWIYGGGFYSGASSLDVYDGRFLVQAERTVLVSMNYRVGAFGFLALPGSREAPGNVGLLDQRLALQWVQENVAAFGGDPTSVTLFGESAGAASVGMHLLSPPSRGLFHRAVLQSGAPNGPWATVGMGEARRRATQLAHLVGCPPGGTGGNDTELVACLRTRPAQVLVNHEWHVLPQESVFRFSFVPVVDGDFLSDTPEALINAGDFHGLQVLVGVVKDEGSYFLVYGAPGFSKDNESLISRAEFLAGVRVGVPQVSDLAAEAVVLHYTDWLHPEDPARLREALSDVVGDHNVVCPVAQLAGRLAAQGARVYAYVFEHRASTLSWPLWMGVPHGYEIEFIFGIPLDPSRNYTAEEKIFAQRLMRYWANFARTGDPNEPRDPKAPQWPPYTAGAQQYVSLDLRPLEVRRGLRAQACAFWNRFLPKLLSATDTLDEAERQWKAEFHRWSSYMVHWKNQFDHYSKQDRCSDL

Legend:
Acetylcholinesterase [1] = target: T1, Acetylcholinesterase (Homo sapiens, UniProt P22303); assay: Inhibitory concentration against Acetylcholinesterase activity
Cholinesterase = Cholinesterase (Homo sapiens, UniProt P06276)
Description: Inhibitory concentration against Butyrylcholinesterase activity

Acetylcholinesterase [2] = target: T1, Acetylcholinesterase; assay: Binding affinity for Acetylcholinesterase
[3] = substrate: COc1ccc(-c2cc3c(c(=O)o2)C[C@@]2(O)[C@@]4(C)CCC(=O)OC(C)(C)[C@@]4(O)CC[C@@]2(C)O3)cc1; assay: Michaelis-Menten constant for affinity against Acetylcholinesterase

Chain of Cholinesterase (P06276 whole entry): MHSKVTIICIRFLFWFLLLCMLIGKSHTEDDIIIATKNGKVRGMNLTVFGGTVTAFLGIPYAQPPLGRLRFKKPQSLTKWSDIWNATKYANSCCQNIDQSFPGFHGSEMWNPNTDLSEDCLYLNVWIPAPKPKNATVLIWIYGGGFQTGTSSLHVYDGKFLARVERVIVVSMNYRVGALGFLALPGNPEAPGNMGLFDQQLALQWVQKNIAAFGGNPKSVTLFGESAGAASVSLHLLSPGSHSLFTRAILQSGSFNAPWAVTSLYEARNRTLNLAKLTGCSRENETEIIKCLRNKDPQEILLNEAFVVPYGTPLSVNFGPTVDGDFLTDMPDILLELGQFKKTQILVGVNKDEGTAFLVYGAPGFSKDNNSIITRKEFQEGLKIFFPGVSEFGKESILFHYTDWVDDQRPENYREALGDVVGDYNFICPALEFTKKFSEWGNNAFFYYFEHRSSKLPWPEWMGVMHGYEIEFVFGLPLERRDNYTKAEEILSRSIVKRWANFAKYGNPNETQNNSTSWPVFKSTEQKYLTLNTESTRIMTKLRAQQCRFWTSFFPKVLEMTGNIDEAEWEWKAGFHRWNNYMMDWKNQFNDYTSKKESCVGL

Row | Molecule | IC50 (Acetylcholinesterase [1]) | IC50 (Cholinesterase) | Ki (Acetylcholinesterase [2]) | Km [3]
1 | COc1ccc(-c2cc3c(c(=O)o2)C[C@@]2(O)[C@@]4(C)C(=O)[C@@]5(OC)C(=O)O[C@]4(CC[C@@]2(C)O3)C5(C)C)cc1 [TERREULACTONE A] | 230 nM | > 200 µM | – | –
2 | COc1ccc(-c2cc3c(c(=O)o2)C[C@@]2(O)[C@@]4(C)CCC(=O)OC(C)(C)[C@@]4(O)CC[C@@]2(C)O3)cc1 | – | > 500 µM | 2300 nM | –
3 | COC1=CC(=O)[C@]2(C)[C@]3(O)Cc4c(cc(-c5cc(OC)c(OC)c(OC)c5)oc4=O)O[C@]3(C)CC[C@]2(O)C1(C)C | 420 nM | > 200 µM | – | –
4 | COc1ccc(-c2cc3c(c(=O)o2)C[C@@]2(O)[C@@]4(C)C=CC(=O)C(C)(C)[C@@]4(O)CC[C@@]2(C)O3)cc1 | 90 nM | > 200 µM | – | –
5 | COc1ccc(-c2cc3c(c(=O)o2)C[C@@]2(O)[C@@]4(C)CCC(=O)C(C)(C)[C@@]4(O)CC[C@@]2(C)O3)cc1 | 60 nM | > 200 µM | – | –
6 | B1 | – | – | – | 20 µM

Source: ChEMBL document CHEMBL1141884 (Bioorg Med Chem Lett, 2005)
